In US20240122909A1, “TREATMENTS OF HEREDITARY ANGIOEDEMA” (KALVISTA PHARMACEUTICALS LIMITED, priority 2021, published 2024):

Experiments:
Assay type in all cases: in vivo, human
[1] = Phase 1 single ascending dose study, plasma pharmacokinetics; settings: oral capsule 5 mg to 600 mg, fasted healthy males
Protocol: (§1) This study was a randomized, double-blind, placebo-controlled single ascending dose (SAD) and crossover studies for food effect and capsule/tablet formulations.
Samples for pharmacokinetic (PK) and PD assessment were taken at repeated intervals over 48 hours.
Plasma samples used for PK assessment were analysed using a validated liquid chromatography tandem mass spectrometry (LC MS/MS) method.

[2] = Phase 2 study Part 2, efficacy in on-demand treatment of HAE attacks
Protocol: In Part 2, the subjects were randomized 1:1 to 2 treatment sequences. This part of the study was conducted away from the clinic or hospital. In Sequence 1 (study arm 1) subjects received a single dose of 600 mg of the compound to treat the first eligible HAE attack. Following resolution of this attack, subjects received a single dose of placebo to treat the second eligible HAE attack.
In Sequence 2 (study arm 2) subjects received a single dose of placebo to treat the first eligible HAE attack. Following resolution of this attack, subjects received a single dose of 600 mg of the compound to treat the second eligible HAE attack.
Laryngeal or facial attacks were not eligible for treatment. HAE attacks must have been treated within the first hour of onset and before reaching severe on the global attack severity scale. Subjects must also have been able to identify the start of a HAE attack. Upon onset of the eligible HAE attack, subjects notified the dedicated study physician or qualified designee with a description of the HAE attack. The dedicated study physician or qualified designee confirmed eligibility of the HAE attack and agreed to study drug being administered. HAE attacks required documentation, on the Subject Diary, of attack location, attack symptoms, time of onset, attack severity, and time of last substantial meal prior to dosing. Subjects took study drug, as instructed, and completed timed assessments of their HAE attack symptoms for a 48 h period as documented below in Table 3. The dedicated study physician or qualified designee contacted the subject within 24 h of the eligible HAE attack to confirm the subject's safety and wellbeing. Subjects were instructed to contact the dedicated study physician or qualified designee in case of any safety concerns. In the case of hypersensitivity, subjects contacted the dedicated study physician or qualified designee or contact the nearest emergency service. The dedicated study physician or qualified designee was available 24 h/day and 7 days/week to receive subject calls.
Time to use of conventional attack treatment was assessed. The subject diary captured the efficacy endpoints including time to use of conventional attack treatment and HAE attack severity.
Overall HAE attack severity was assessed on a 5-point Likert scale (5LS) scored as none, mild, moderate, severe and very severe.
Change in HAE attack severity was assessed using a 7-point transition question (7TQ), scored as Much better/Better/A little better/No change/A little worse/Worse/Much worse.
The type of HAE attack symptoms (abdominal pain, skin pain and skin swelling) was each assessed on a 100 mm visual analogue scale (VAS) anchored at 0 (none) and 100 (very severe).
The primary endpoint, time to use of conventional attack treatment, was analyzed using a generalization of Gehan's test proposed by Feingold and Gillespie (1996) (Crossover trials with censored data. Statistics in Medicine 1996; 15(10): 953-967) to reflect the repeat measures on each subject. Subjects were treated as censored if no worsening occurs within 12 h of study drug.
The proportion of HAE attacks that worsen by one level or more on the 5LS or that require conventional attack treatment within 12 h of study drug was analyzed using Prescott's test (1981) (The comparison of success rates in cross-over trials in the presence of an order effect. Applied Statistics 1981; 30: 9-15) to compare the treatment arms.
A similar approach to that used for the primary endpoint was followed for the analysis of the time between study drug and HAE attack worsening by one level or more on the 5LS or use of conventional attack treatment, whichever comes first within 12 h. […]

[3] = Phase 1 single ascending dose study, safety and tolerability; settings: phase I trial, healthy males
Source text: as §1

[4] = system: plasma prekallikrein; assay: Phase 1 study, ex vivo DXS-stimulated cleavage of plasma prekallikrein (Wes); settings: 600 mg capsules, up to 12 hrs post-dose
Source text: (§2) DXS-stimulated cleavage of plasma prekallikrein and Factor XII (FXII) were quantified by capillary-based immunoassay on the Wes System (ProteinSimple) analogously.

[5] = system: Factor XII (FXII); assay: Phase 1 study, ex vivo DXS-stimulated cleavage of Factor XII (Wes); settings: 600 mg capsules, up to 12 hrs post-dose
Source text: as §2

[6] = Phase 2 study, safety (drug-related TEAEs)
Source text: Safety Variables: • AEs, including serious adverse events (SAEs). • Laboratory test results (clinical chemistry, hematology, coagulation, and urinalysis). • Vital signs (SBP, DBP, PR, RR, body temperature). • Physical examination findings. • ECG results. • Pregnancy test (female subjects of child-bearing potential).
AEs were coded using the Medical Dictionary for Regulatory Activities (MedDRA) dictionary (v21.0 or higher) and classified by preferred term and system organ class (SOC). Listings of treatment-emergent adverse events (TEAEs), serious TEAEs, and TEAEs causing premature discontinuation will be provided by sequence group, and further classified by TEAE severity and relationship to study drug.

**Q.** With `COCc1nn(Cc2ccc(Cn3ccccc3=O)cc2)cc1C(=O)NCc1nccc(OC)c1F` [compound of Formula A, N-[(3-fluoro-4-methoxypyridin-2-yl)methyl]-3-(methoxymethyl)-1-({4-[(2-oxopyridin-1-yl)methyl]phenyl}methyl)pyrazole-4-carboxamide] as the compound, how does the plasma exposure [1] read?
**A.** rapid and dose-dependent plasma exposure

**Q.** What about the “PGI-C: Median time to HAE attack being (1) rated a little worse or higher for two consecutive time points, or (2) use of conventional attack treatment, whichever comes first” value ([2]; 600 mg, N = 53, at 12 hours) of the same compound?
**A.** >12 h

**Q.** What about the “PGI-C: Median time to HAE attack being rated a little worse or higher for two consecutive time points” value ([2]; 600 mg, N = 53, at 12 hours) of the same compound?
**A.** >12 h

**Q.** What about the “PGI-C: Proportion of HAE attacks that were stable or improved” value ([2]; 600 mg, N = 53, at 12 hours) of the same compound?
**A.** 48 (90.6) n (%)

**Q.** What about the “PGI-S: Median time to HAE attack resolution (rating of none)” value ([2]; 600 mg, N = 53, at 12 hours) of the same compound?
**A.** >12 h

**Q.** What about the “PGI-S: Median time to improvement by one level or more from baseline” value ([2]; 600 mg, N = 53, at 12 hours) of the same compound?
**A.** 9.0 h

**Q.** What about the “PGI-S: Proportion of HAE attacks that improved by 1 level or more from baseline” value ([2]; 600 mg, N = 53, at 12 hours) of the same compound?
**A.** 30 (56.6) n (%)

**Q.** And the “PGI-S: Proportion of patients with HAE attack resolution (rating of none)” value ([2]; 600 mg, N = 53, at 12 hours)?
**A.** 20 (37.7) n (%)

**Q.** What about the “VAS: Proportion of HAE attacks with symptom relief (50% reduction from baseline in composite VAS for three consecutive time points)” value ([2]; 600 mg, N = 53, at 12 hours) of the same compound?
**A.** 33 (62.3) n (%)

**Q.** What about the “PGI-C: Median time to HAE attack being (1) rated a little worse or higher for two consecutive time points, or (2) use of conventional attack treatment, whichever comes first” value ([2]; 600 mg, N = 53, at 24 hours) of the same compound?
**A.** >24 h

**Q.** What about the “PGI-C: Median time to HAE attack being rated a little worse or higher for two consecutive time points” value ([2]; 600 mg, N = 53, at 24 hours) of the same compound?
**A.** >24 h

**Q.** And the “PGI-C: Proportion of HAE attacks that were stable or improved” value ([2]; 600 mg, N = 53, at 24 hours)?
**A.** 45 (84.9) n (%)

**Q.** What about the “PGI-S: Median time to HAE attack resolution (rating of none)” value ([2]; 600 mg, N = 53, at 24 hours) of the same compound?
**A.** 18.0 h

**Q.** And the “PGI-S: Median time to improvement by one level or more from baseline” value ([2]; 600 mg, N = 53, at 24 hours)?
**A.** 9.0 h

**Q.** And the “PGI-S: Proportion of HAE attacks that improved by 1 level or more from baseline” value ([2]; 600 mg, N = 53, at 24 hours)?
**A.** 35 (66.0) n (%)

**Q.** And the “PGI-S: Proportion of patients with HAE attack resolution (rating of none)” value ([2]; 600 mg, N = 53, at 24 hours)?
**A.** 28 (52.8) n (%)

**Q.** What about the “VAS: Proportion of HAE attacks with symptom relief (50% reduction from baseline in composite VAS for three consecutive time points)” value ([2]; 600 mg, N = 53, at 24 hours) of the same compound?
**A.** 39 (73.6) n (%)

**Q.** What about the “severity of the HAE attack, composite VAS score” value ([2]; 600 mg, over 12 hours and 24 hours) of the same compound?
**A.** reduced the severity of the HAE attack

**Q.** And the “attacks improved to “none” on PGI-S (5LS)” value ([2]; 600 mg, within 12 hours)?
**A.** 37.7%

**Q.** What about the “number of attacks stabilized or improved by PGI-S (5LS) or use of rescue” value ([2]; 600 mg, within 12 hours) of the same compound?
**A.** significantly increased the number of attacks stabilized or improved

**Q.** And the “attacks improved to “none” on PGI-S (5LS)” value ([2]; 600 mg, within 24 hours)?
**A.** 52.8%

**Q.** And the “Median time to symptom relief” value ([2]; abdominal attacks)?
**A.** 1.5 h

**Q.** And the “attacks that achieved attack resolution within 24 hours” value ([2]; abdominal attacks)?
**A.** 61.1%

**Q.** And the “attacks that achieved symptom relief (PGI-C at least “A little better” within 12 hours)” value ([2]; abdominal attacks)?
**A.** 77.8%

**Q.** What about the “Median time to symptom relief” value ([2]; peripheral attacks) of the same compound?
**A.** 2.5 h

**Q.** And the “attacks that achieved attack resolution within 24 hours” value ([2]; peripheral attacks)?
**A.** 50.0%

**Q.** And the “attacks that achieved symptom relief (PGI-C at least “A little better” within 12 hours)” value ([2]; peripheral attacks)?
**A.** 77.5%

**Q.** What about the tolerability [3] of the same compound?
**A.** no tolerability signals

**Q.** And the “effect on PPK cleavage” value [4]?
**A.** reduces PPK cleavage

**Q.** What about the “effect on generation of FXIIa” value [5] of the same compound?
**A.** reduces the generation of FXIIa

**Q.** And the “on-treatment drug-related TEAE, number of events” value ([6]; Part 1, open-label phase)?
**A.** 8

**Q.** What about the “patients with on-treatment drug-related TEAE” value ([6]; Part 1, open-label phase) of the same compound?
**A.** 5 patients

**Q.** And the “on-treatment drug-related TEAE, number of events” value ([6]; Part 2, crossover phase)?
**A.** 3

**Q.** And the “patients with on-treatment drug-related TEAE” value ([6]; Part 2, crossover phase)?
**A.** 5.2%
